Test results taken from PubChem BioAssay AID330 (DTP/NCI, 2004).
Several values for one entry are separate records, joined by “and”; a condition that tells them apart may be missing. Equal values may be shown once. Toxic doses and inconclusive results are not listed.

System: P388 leukemia ip, CD2F1 mice, survival T/C
Assay: NCI In Vivo Anticancer Drug Screen. Data for tumor model P388 Leukemia (intraperitoneal) in CD2F1 (CDF1) mice
Conditions: endpoint: median survival time, higher = longer survival
In short: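 Mice carrying the transplanted tumor received test compound or vehicle. Survival was recorded in each group, and the value is the treated-group measurement divided by that of the vehicle-treated control group.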

[1] = dose: 12.5 mg/kg/injection, schedule: Q01DX009 (ip), vehicle: Klucel (hydroxypropylcellulose) (HPC)
[2] = dose: 25.0 mg/kg/injection, schedule: Q01DX009 (ip), vehicle: Klucel (hydroxypropylcellulose) (HPC)
[3] = dose: 50.0 mg/kg/injection, schedule: Q01DX009 (ip), vehicle: Klucel (hydroxypropylcellulose) (HPC)
[4] = dose: 50.0 mg/kg/injection, schedule: Q01DX009 (ip), vehicle: saline with Tween-80
[5] = dose: 100.0 mg/kg/injection, schedule: Q01DX009 (ip), vehicle: saline with Tween-80
[6] = dose: 100.0 mg/kg/injection, schedule: Q01DX009 (ip), vehicle: Klucel (hydroxypropylcellulose) (HPC)
[7] = dose: 200.0 mg/kg/injection, schedule: Q01DX009 (ip), vehicle: Klucel (hydroxypropylcellulose) (HPC)
[8] = dose: 60.0 mg/kg/injection, schedule: Q01DX005 (ip), vehicle: saline
[9] = dose: 120.0 mg/kg/injection, schedule: Q01DX005 (ip), vehicle: saline
[10] = dose: 240.0 mg/kg/injection, schedule: Q01DX005 (ip), vehicle: saline
[11] = dose: 200.0 mg/kg/injection, schedule: Q01DX009 (ip), vehicle: saline with Tween-80
[12] = dose: 50.0 mg/kg/injection, schedule: Q01DX005 (ip), vehicle: Klucel (hydroxypropylcellulose) (HPC)
[13] = dose: 100.0 mg/kg/injection, schedule: Q01DX005 (ip), vehicle: Klucel (hydroxypropylcellulose) (HPC)
[14] = dose: 200.0 mg/kg/injection, schedule: Q01DX005 (ip), vehicle: Klucel (hydroxypropylcellulose) (HPC)

For O/N=C(\C[P+](c1ccccc1)(c1ccccc1)c1ccccc1)c1ccccc1, the T/C [1] was 100 % of control, the T/C [2] was 99 % of control and the T/C [3] was 102 % of control.
With Cc1cc(C)cc(C(N)=O)c1 the T/C (dose: 100.0 mg/kg/injection, schedule: Q04DX003 (ip), vehicle: saline) was 96 % of control and the T/C (dose: 200.0 mg/kg/injection, schedule: Q04DX003 (ip), vehicle: saline) was 99 % of control.
In the case of COc1cc(O)c2c(O)c3c(=O)cc(C)oc3cc2c1, the T/C (dose: 25.0 mg/kg/injection, schedule: Q01DX009 (ip), vehicle: saline with Tween-80) is reported as 102 % of control, the T/C [4] is reported as 109 % of control and the T/C [5] is reported as 112 % of control.
In the case of c1ccc2c(c1)NCCOCCNc1ccccc1OCCNCCO2, the T/C (dose: 25.0 mg/kg/injection, schedule: Q01DX001 (ip), vehicle: saline with Tween-80) is reported as 100 % of control, the T/C (dose: 50.0 mg/kg/injection, schedule: Q01DX001 (ip), vehicle: saline with Tween-80) is reported as 96 % of control and the T/C (dose: 100.0 mg/kg/injection, schedule: Q01DX001 (ip), vehicle: saline with Tween-80) is reported as 89 % of control and 92 % of control.
O=Cc1ccc(S(=O)(=O)F)cc1 was tested, and the T/C [3] was 99 % of control, the T/C [6] was 97 % of control and the T/C [7] was 93 % of control.
For Cc1cccc(/C=N/NC(N)=S)n1, the T/C (dose: 15.0 mg/kg/injection, schedule: Q04DX002 (ip), vehicle: saline with Tween-80) was 105 % of control, the T/C (dose: 30.0 mg/kg/injection, schedule: Q04DX002 (ip), vehicle: saline with Tween-80) was 106 % of control and the T/C (dose: 60.0 mg/kg/injection, schedule: Q04DX002 (ip), vehicle: saline with Tween-80) was 106 % of control.
In the case of CCOC(=O)CC12C=CC(CC(=O)OCC)(CC1)n1c(=O)n(C)c(=O)n12, the T/C (dose: 100.0 mg/kg/injection, schedule: Q04DX002 (ip), vehicle: saline with Tween-80) is reported as 100 % of control, the T/C (dose: 200.0 mg/kg/injection, schedule: Q04DX002 (ip), vehicle: saline with Tween-80) is reported as 100 % of control and the T/C (dose: 400.0 mg/kg/injection, schedule: Q04DX002 (ip), vehicle: saline with Tween-80) is reported as 101 % of control.
For CC/C(=N/N(C)C)C(=O)OC(C)(C)C, the T/C [8] was 95 % of control, the T/C [9] was 93 % of control and the T/C [10] was 90 % of control.
In the case of CCOC(=O)Cc1csc(=S)n1-c1ccccc1, the T/C (dose: 50.0 mg/kg/injection, schedule: Q01DX005 (ip), vehicle: saline with Tween-80) is reported as 102 % of control, the T/C (dose: 100.0 mg/kg/injection, schedule: Q01DX005 (ip), vehicle: saline with Tween-80) is reported as 102 % of control and the T/C (dose: 200.0 mg/kg/injection, schedule: Q01DX005 (ip), vehicle: saline with Tween-80) is reported as 90 % of control.
With CCCCCCCCCCCCCCCC(=O)OC(=O)CCCCCCCCCCCCCCC the T/C [4] was 100 % of control, the T/C [5] was 95 % of control and the T/C [11] was 94 % of control.
With CCOC(=O)CCCCCCNC(=O)N1c2c(nc(N)[nH]c2=O)NCC1CNc1ccc(C(=O)NC(CCC(=O)O)C(=O)O)cc1 (stereo unspecified) the T/C (dose: 50.0 mg/kg/injection, schedule: Q01DX001 (ip), vehicle: sodium bicarbonate) was 106 % of control, the T/C (dose: 100.0 mg/kg/injection, schedule: Q01DX001 (ip), vehicle: sodium bicarbonate) was 100 % of control and the T/C (dose: 200.0 mg/kg/injection, schedule: Q01DX001 (ip), vehicle: sodium bicarbonate) was 100 % of control.
O=C(COc1ccc(Cl)cc1Cl)NCCN1CCCCC1 was tested, and the T/C [3] was 107 % of control, the T/C [6] was 100 % of control and the T/C [7] was 100 % of control.
In the case of CC(C)(C#N)NCCNC(C)(C)C#N, the T/C (dose: 6.25 mg/kg/injection, schedule: Q01DX001 (ip), vehicle: saline) is reported as 108 % of control and the T/C (dose: 12.5 mg/kg/injection, schedule: Q01DX001 (ip), vehicle: saline) is reported as 99 % of control.
In the case of Cc1nc(N)[nH]c(=O)c1CCCNC(=O)c1cccc([N+](=O)[O-])c1, the T/C (dose: 60.0 mg/kg/injection, schedule: Q01DX005 (ip), vehicle: saline with Tween-80) is reported as 94 % of control, the T/C (dose: 120.0 mg/kg/injection, schedule: Q01DX005 (ip), vehicle: saline with Tween-80) is reported as 100 % of control and the T/C (dose: 240.0 mg/kg/injection, schedule: Q01DX005 (ip), vehicle: saline with Tween-80) is reported as 103 % of control.
With COc1ccc(C2OCC3C2CO[C@H]3c2ccc(OC)c(OC)c2)cc1OC (mixture of isomers) the T/C (dose: 8.0 mg/kg/injection, schedule: Q01DX009 (ip), vehicle: Klucel (hydroxypropylcellulose) (HPC)) was 90 % of control, the T/C (dose: 16.0 mg/kg/injection, schedule: Q01DX009 (ip), vehicle: Klucel (hydroxypropylcellulose) (HPC)) was 97 % of control and the T/C (dose: 32.0 mg/kg/injection, schedule: Q01DX009 (ip), vehicle: Klucel (hydroxypropylcellulose) (HPC)) was 91 % of control. For the same compound, the T/C (dose: 64.0 mg/kg/injection, schedule: Q01DX009 (ip), vehicle: Klucel (hydroxypropylcellulose) (HPC)) was 89 % of control.
Cc1cc2nc(N(C)C)cc(N(C)C)c2cc1C was tested, and the T/C [1] was 115 % of control, the T/C [2] was 109 % of control and the T/C [3] was 100 % of control and 105 % of control.
For CN(C)CCC(=O)C(=Cc1ccco1)C(=O)CCN(C)C, the T/C [8] was 100 % of control, the T/C [9] was 104 % of control and the T/C [10] was 109 % of control.
In the case of CCOc1nc(N)nc(C)c1N=Nc1ccc(Cl)cc1Cl, the T/C (dose: 60.0 mg/kg/injection, schedule: Q01DX005 (ip), vehicle: Klucel + Tween-80) is reported as 100 % of control and the T/C (dose: 120.0 mg/kg/injection, schedule: Q01DX005 (ip), vehicle: Klucel + Tween-80) is reported as 110 % of control.
COc1ccccc1C(=O)c1ccccc1C(=O)O was tested, and the T/C [12] was 101 % of control, the T/C [13] was 105 % of control and the T/C [14] was 103 % of control.
For O=C1C(c2ccccc2)=S=C2Sc3ccccc3N12, the T/C [4] was 105 % of control, the T/C [5] was 102 % of control and the T/C [11] was 95 % of control.
With COc1cccc(NC(=S)NCc2cccnc2)c1 the T/C [3] was 101 % of control, the T/C [6] was 91 % of control and the T/C [7] was 111 % of control.
For CN1C2CCC1C(O)C(c1ccc(Cl)cc1)C2 (stereo unspecified), the T/C (dose: 25.0 mg/kg/injection, schedule: Q01DX005 (ip), vehicle: Klucel (hydroxypropylcellulose) (HPC)) was 100 % of control, the T/C [12] was 100 % of control and the T/C [13] was 91 % of control.
In the case of CC(C)=CCCC(C)CCC1NC(C(=O)O)CS1 (stereo unspecified), the T/C (dose: 50.0 mg/kg/injection, schedule: Q01DX009 (ip), vehicle: saline) is reported as 94 % of control, the T/C (dose: 100.0 mg/kg/injection, schedule: Q01DX009 (ip), vehicle: saline) is reported as 94 % of control and the T/C (dose: 200.0 mg/kg/injection, schedule: Q01DX009 (ip), vehicle: saline) is reported as 95 % of control.
CC(NC(=O)C(Cl)Cl)C(=O)O (stereo unspecified) was tested, and the T/C [12] was 96 % of control, the T/C [13] was 99 % of control and the T/C [14] was 96 % of control.
In the case of O=c1oc2c(c(N(c3ccccc3)c3ccccc3)c1Cl)Cc1ccccc1CC2, the T/C (dose: 50.0 mg/kg/injection, schedule: Q04DX003 (ip), vehicle: Klucel (hydroxypropylcellulose) (HPC)) is reported as 95 % of control, the T/C (dose: 100.0 mg/kg/injection, schedule: Q04DX003 (ip), vehicle: Klucel (hydroxypropylcellulose) (HPC)) is reported as 92 % of control and the T/C (dose: 200.0 mg/kg/injection, schedule: Q04DX003 (ip), vehicle: Klucel (hydroxypropylcellulose) (HPC)) is reported as 91 % of control.
With NC1=NN(O)C2=CC([N+](=O)[O-])C=CC2=N1 (stereo unspecified) the T/C [4] was 101 % of control, the T/C [5] was 110 % of control and the T/C [11] was 97 % of control.
In the case of O=c1[nH]c(=O)c2nc(-c3cccc([N+](=O)[O-])c3)cnc2[nH]1, the T/C (dose: 100.0 mg/kg/injection, schedule: Q04DX002 (ip), vehicle: saline) is reported as 101 % of control, the T/C (dose: 200.0 mg/kg/injection, schedule: Q04DX002 (ip), vehicle: saline) is reported as 113 % of control and the T/C (dose: 400.0 mg/kg/injection, schedule: Q04DX002 (ip), vehicle: saline) is reported as 106 % of control.
With O=C1CC2(Cl)CN3c4ccccc4C(=O)CC3(Cl)CN2c2ccccc21 (stereo unspecified) the T/C (dose: 12.5 mg/kg/injection, schedule: Q04DX003 (ip), vehicle: alcohol) was 100 % of control and 106 % of control, the T/C (dose: 25.0 mg/kg/injection, schedule: Q04DX003 (ip), vehicle: alcohol) was 99 % of control and 106 % of control and the T/C (dose: 50.0 mg/kg/injection, schedule: Q04DX003 (ip), vehicle: alcohol) was 100 % of control and 108 % of control.
CCCCCCCCCCCCCCN1CCS(=O)(=O)CC1 was tested, and the T/C [3] was 89 % of control, the T/C [6] was 91 % of control and the T/C [7] was 90 % of control.
In the case of O=C1c2ccccc2C(=O)C2C3C=CC(CC3)C12 (stereo unspecified), the T/C [12] is reported as 105 % of control, the T/C [13] is reported as 102 % of control and the T/C [14] is reported as 99 % of control.
For Cc1nc(Cl)c2c3c(sc2n1)CCCC3, the T/C (dose: 18.75 mg/kg/injection, schedule: Q01DX001 (ip), vehicle: saline sonified) was 95 % of control, the T/C (dose: 37.5 mg/kg/injection, schedule: Q01DX001 (ip), vehicle: saline sonified) was 100 % of control and the T/C (dose: 75.0 mg/kg/injection, schedule: Q01DX001 (ip), vehicle: saline sonified) was 100 % of control.
